Results reported in patent US11084826B2, “RSV antiviral pyrazolo- and triazolo-pyrimidine compounds” (Janssen Sciences Ireland Unlimited Company, priority 2015, dated 2021).
Values joined by “and” are separate entries in the source; they are usually repeats but may differ in a detail not shown here. Identical values can stand only once. Like-named read-outs stand apart in the source and are kept apart here.

Experiments:
[1] = test system: rgRSV224 virus; assay: Antiviral activity: inhibition of rgRSV224 (GFP-expressing RSV) replication in HeLa cells, GFP expression read-out; assay type: cell-based, respiratory syncytial virus (RSV); details: for RSV HELA pEC50: rgRSV224 virus (MOI=1) in HeLa cells, GFP read-out; for EC50: human respiratory syncytial virus, HeLa, read-out: RSV HELA pEC50, rgRSV224 virus (MOI=1) in HeLa cells, GFP read-out (converted)
Outline: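 EC50 is the 50% inhibitory concentration for GFP expression, read by laser microscopy three days after rgRSV224 infection (MOI=1) of HeLa cells (3,000/well). Compounds were tested as 9 serial 4-fold dilutions at 0.05% DMSO, and cells were incubated at 37° C under 5% CO2.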

[2] = test system: HeLa cells; assay: Cytotoxicity in HeLa cells, ATP content measured with the ATPlite kit; assay type: cell-based
[3] = as above; assay type: cell-based; details: human, TOX HELA pCC50

## CCc1cc(C(=O)N2CCCCCC2C)nc2cc(-c3ccc(N(C)C)cc3)nn12 (stereo not drawn) [Compound A2]
[1]
  RSV HELA pEC50: 5.52
[2]
  TOX HELA pCC50: <4.60

## CCc1cc(C(=O)N2CCCCCC2C)nc2cc(-c3ccccc3Cl)nn12 (stereo not drawn) [Compound A3]
[1]
  RSV HELA pEC50: 5.45
[2]
  TOX HELA pCC50: 4.40

## CCc1cc(C(=O)N2CCCCCC2C)nc2cc(-c3ccc4[nH]c(=O)ccc4c3)nn12 (stereo not drawn) [Compound A15]
[1]
  RSV HELA pEC50: 6.47
[2]
  TOX HELA pCC50: <4.60

## CCCC(C)N(CC)C(=O)c1cc(CC)n2nc(-c3ccccc3F)cc2n1 (stereo not drawn) [Compound A16]
[1]
  RSV HELA pEC50: 5.57
[2]
  TOX HELA pCC50: 4.45

## CC1CCCCCN1C(=O)c1cc(N2CCCC2)n2nc(-c3ccc(N(C)C)cc3)cc2n1 (stereo not drawn) [Compound A19]
[1]
  RSV HELA pEC50: 5.34
[2]
  TOX HELA pCC50: 4.42

## CCc1cc(C(=O)N2CCc3ccccc3C2C)nc2cc(-c3cc4cccnc4cc3F)nn12 (stereo not drawn) [Compound A31]
[1]
  RSV HELA pEC50: 6.20
[2]
  TOX HELA pCC50: <4.60

## CCc1cc(C(=O)N2CCCCCC2C)nc2cc(-c3ccc(NC(=O)OCC4CCCN4)cc3F)nn12 (stereo not drawn) [Compound C3]
[1]
  RSV HELA pEC50: 6.78 and 6.55
[2]; HeLa cells, cytotoxicity
  TOX HELA pCC50: <4.60 and 4.89

## CCc1cc(C(=O)N2CCCCC[C@H]2C)nc2cc(-c3ccc(-c4nc(C(=O)O)ccc4F)cc3F)nn12 [Compound F20]
[1]
  RSV HELA pEC50: 7.07
[2]
  TOX HELA pCC50: 4.30

## C[C@@H]1CCCCCN1C(=O)c1cc(C2CC2)n2nc(-c3ccc(-c4ccc(C(=O)O)cn4)cc3F)cc2n1 [Compound F21]
[1]
  RSV HELA pEC50: 7.28
[2]
  TOX HELA pCC50: 4.37

## CCc1cc(C(=O)N2CCc3ccccc3[C@H]2C)nc2cc(-c3ccc4cc(C(=O)O)ccc4c3F)nn12 [Compound F34]
[1]
  RSV HELA pEC50: 7.46
[2]
  TOX HELA pCC50: 4.17

## CCc1cc(C(=O)N2CCCCC[C@H]2C)nc2cc(-c3ccc4c(c3F)OCC(C(=O)O)C4)nn12 (stereo partly drawn) [Compound F42]
[1]
  RSV HELA pEC50: 7.16
[2]
  TOX HELA pCC50: <4

## CCc1cc(C(=O)N2CCCCC[C@H]2C)nc2cc(-c3ccc4oc(C(=O)O)cc4c3F)nn12 [Compound F44]
[1]
  RSV HELA pEC50: 6.40
[2]
  TOX HELA pCC50: 4.25

## CCc1cc(C(=O)N2CCCCC[C@H]2C)nc2cc(-c3ccc4c(c3F)C=C(C(=O)O)CO4)nn12 [Compound F46]
[1]
  RSV HELA pEC50: 7.31
[2]
  TOX HELA pCC50: <4

## CCc1cc(C(=O)N2CCCCC[C@H]2C)nc2cc(-c3ccc(C4=CCCC(C(=O)O)C4)cc3F)nn12 (stereo partly drawn) [Compound F52]
[1]
  RSV HELA pEC50: 6.81
[2]
  TOX HELA pCC50: 4.22

## CCc1cc(C(=O)N2CCc3ccccc3[C@H]2C)nc2cc(-c3ccc4c(c3F)OCC(C(=O)O)=C4)nn12 [Compound F54]
[1]
  RSV HELA pEC50: 8.59
[2]
  TOX HELA pCC50: 4.75

## CCc1cc(C(=O)N2CCc3sccc3[C@H]2C)nc2cc(-c3ccc(-c4ccc(C(=O)O)cn4)cc3F)nn12 [Compound F63]
[1]
  RSV HELA pEC50: 7.34
[2]
  TOX HELA pCC50: 4.35

## CCc1cc(C(=O)N2CCCCC[C@H]2C)nc2cc(-c3ccc4c(c3F)OC[C@H](C(=O)O)C4)nn12 [Compound F64]
[1]
  RSV HELA pEC50: 7.12
[2]
  TOX HELA pCC50: <4

## CCc1cc(C(=O)N2CCn3c(C)ccc3C2C)nc2cc(-c3ccc(C(N)=O)cc3F)nn12 (stereo not drawn) [Compound I36]
[1]
  RSV HELA pEC50: 6.58
[2]
  TOX HELA pCC50: <4.60

## CCc1cc(C(=O)N2CCn3nccc3C2C)nc2cc(-c3ccc(C(N)=O)cc3F)nn12 (stereo not drawn) [Compound I37]
[1]
  RSV HELA pEC50: 6.24
[2]
  TOX HELA pCC50: <4.60

## C[C@@H]1CCCCCN1C(=O)c1cc(N(C)C)n2nc(-c3ccc(/C=C/C(=O)O)cc3F)cc2n1 [Compound M4]
[1]
  RSV HELA pEC50: 6.80
[2]
  TOX HELA pCC50: <4.60

## CCc1cc(C(=O)N2CCc3ccccc3C2C)nc2cc(-c3ccc(/C=C/C(=O)O)cc3Cl)nn12 (stereo not drawn) [Compound M6]
[1]
  RSV HELA pEC50: 6.84
[2]
  TOX HELA pCC50: <4.60

## CCc1cc(C(=O)N2CCCCC[C@H]2C)nc2cc(-c3ccc(/C=C/C(=O)O)cc3F)nn12 [Compound M7]
[1]
  RSV HELA pEC50: 7.00
[2]
  TOX HELA pCC50: <4.60

## CNc1cc(C(=O)N2CCc3ccccc3C2C)nc2cc(-c3ccc(/C=C/C(=O)O)cc3F)nn12 (stereo not drawn) [Compound M8]
[1]
  RSV HELA pEC50: 7.31
[2]
  TOX HELA pCC50: <4.60

## C[C@@H]1CCCCCN1C(=O)c1cc(C2CC2)n2nc(-c3ccc(/C=C/C(=O)O)cc3F)cc2n1 [Compound M21]
[1]
  RSV HELA pEC50: 7.16
[2]
  TOX HELA pCC50: 4.34

## CCc1cc(C(=O)N2CCCCCC2C)nc2nc(-c3ccc(C(N)=O)cc3F)nn12 (stereo not drawn) [Compound V1]
[1]
  EC50: 1910 nM
[3]
  CC50 at 3 days: > 25100 nM
other
  melting point: 215 to 220 °C

## CCc1cc(C(=O)N2CCCCC[C@H]2C)nc2cc(-c3ccc(-n4ccc(C(=O)O)n4)cc3F)nn12 [Compound W3]
[1]
  EC50: 107 nM
[3]
  CC50 at 3 days: 60300 nM
other
  melting point: 207.63 °C

## CCc1cc(C(=O)N2CCCCC[C@H]2C)nc2cc(-c3ccc(N4CC[C@@H](C(=O)O)C4)cc3F)nn12 [Compound W6]
[1]
  EC50: 81.3 nM
[3]
  CC50 at 3 days: 69200 nM
other
  melting point: 214.84 °C

## CCc1cc(C(=O)N2CCCCC[C@H]2C)nc2cc(-c3ccc(N4CC[C@H](C(=O)O)C4)cc3F)nn12 [Compound W7]
[1]
  EC50: 47.9 nM
[3]
  CC50 at 3 days: 70800 nM
other
  melting point: 205.8 °C

## C[C@@H]1CCCCCN1C(=O)c1cc(C2CC2)n2nc(-c3ccc(-n4cc(C(=O)O)cn4)cc3F)cc2n1 [Compound W8]
[1]
  EC50: 77.6 nM
[3]
  CC50 at 3 days: 55000 nM
other
  melting point: 232.32 °C

## C[C@@H]1CCCCCN1C(=O)c1cc(C2CCC2)n2nc(-c3ccc(-n4cc(C(=O)O)cn4)cc3F)cc2n1 [Compound W9]
[1]
  EC50: 46.8 nM
[3]
  CC50 at 3 days: 51300 nM
other
  melting point: 142.16 °C

## C[C@@H]1CCCCCN1C(=O)c1cc(C2(C)CC2)n2nc(-c3ccc(-n4cc(C(=O)O)cn4)cc3F)cc2n1 [Compound W10]
[1]
  EC50: 30.9 nM
[3]
  CC50 at 3 days: 52500 nM
other
  melting point: 239.85 °C

## CCc1cc(C(=O)N2CCCCC[C@H]2C)nc2cc(-c3ccc(N4CC=C(C(=O)O)CC4)cc3F)nn12 [Compound W11]
[1]
  EC50: 234 nM
[3]
  CC50 at 3 days: 58900 nM
other
  melting point: 277.45 °C

## CCc1cc(C(=O)N2CCCCC[C@H]2C)nc2cc(-c3ccc(N4C[C@@H]5CC(C(=O)O)=C[C@@H]5C4)cc3F)nn12 [Compound W12]
[1]
  EC50: 204 nM
[3]
  CC50 at 3 days: 63100 nM
other
  melting point: 252.19 °C

## CC(C)=Cc1cc(C(=O)N2CCCCC[C@H]2C)nc2cc(-c3ccc(N4CC[C@H](C(=O)O)C4)cc3F)nn12 [Compound W15]
[1]
  EC50: 51.3 nM
[3]
  CC50 at 3 days: 57500 nM
other
  melting point: 189.89 °C

## CCc1cc(C(=O)N2CCCCC[C@H]2C)nc2cc(-c3ccc(N4CCC(C)(C(=O)O)C4)cc3F)nn12 (stereo partly drawn) [Compound W17]
[1]
  EC50: 21.9 nM
[3]
  CC50 at 3 days: 58900 nM
other
  melting point: 172.28 °C

## CCc1cc(C(=O)N2CCCCC[C@H]2C)nc2cc(-c3ccc(N4CCC(CO)(C(=O)O)C4)cc3F)nn12 (stereo partly drawn) [Compound W18]
[1]
  EC50: 81.3 nM
[3]
  CC50 at 3 days: > 100000 nM
other
  melting point: 276.58 °C

## C[C@@H]1c2ccccc2CCN1C(=O)c1cc(C2(C)CC2)n2nc(-c3ccc(-n4cc(C(=O)O)cn4)cc3F)cc2n1 [Compound W26]
[1]
  EC50: 23.4 nM
[3]
  CC50 at 3 days: > 100000 nM
other
  melting point: 238.58 °C

## CCc1cc(C(=O)N2CCc3ccccc3[C@H]2C)nc2cc(-c3ccc(-n4cc(C(=O)O)cn4)cc3F)nn12 [Compound W27]
[1]
  EC50: 39.8 nM
[3]
  CC50 at 3 days: 46800 nM
other
  melting point: 144.43 °C

## CCc1cc(C(=O)N2CCc3ccccc3[C@H]2C)nc2cc(-c3ccc(N4CC[C@H](C(=O)O)C4)cc3F)nn12 [Compound W28]
[1]
  EC50: 4.27 nM
[3]
  CC50 at 3 days: 51300 nM
other
  melting point: 218.99 °C

## CCc1cc(C(=O)N2CCCCCN2C)nc2cc(-c3ccc(-n4cc(C(=O)O)cn4)cc3F)nn12 [Compound W32]
[1]
  EC50: 219 nM
[3]
  CC50 at 3 days: > 100000 nM
other
  melting point: 268.79 °C

## C[C@@H]1c2ccccc2CCN1C(=O)c1cc(C2CC2)n2nc(-c3ccc(-n4cc(C(=O)O)cn4)cc3F)cc2n1 [Compound W33]
[1]
  EC50: 16.2 nM
[3]
  CC50 at 3 days: 57500 nM
other
  melting point: 257.75 °C

## C[C@@H]1c2ccccc2CCN1C(=O)c1cc(C2(C)CC2)n2nc(-c3ccc(N4CC[C@H](C(=O)O)C4)cc3F)cc2n1 [Compound W34]
[1]
  EC50: 11.2 nM
[3]
  CC50 at 3 days: 43700 nM
other
  melting point: 162.08 °C

## CCc1cc(C(=O)N2CCCCC[C@H]2C)nc2cc(-c3ccc(-n4cc(C(=O)O)c(Cl)n4)cc3F)nn12 [Compound W35]
[1]
  EC50: 191 nM
[3]
  CC50 at 3 days: > 25100 nM
other
  melting point: 145.75 °C

## C[C@@H]1c2ccccc2CCN1C(=O)c1cc(C2CC2)n2nc(-c3ccc(N4CC[C@H](C(=O)O)C4)cc3F)cc2n1 [Compound W38]
[1]
  EC50: 5.75 nM
[3]
  CC50 at 3 days: 46800 nM
other
  melting point: 214 °C

## CC1c2ccsc2CCN1C(=O)c1cc(C2CC2)n2nc(-c3ccc(-n4cc(C(=O)O)cn4)cc3F)cc2n1 (stereo not drawn) [Compound W41]
[1]
  EC50: 13.2 nM
[3]
  CC50 at 3 days: > 25100 nM
other
  melting point: 257.83 °C

## CCc1cc(C(=O)N2CCCCC[C@H]2C)nc2cc(-c3ccc(N4CC[C@](C)(C(=O)O)C4)cc3F)nn12 [Compound W49]
[1]
  EC50: 43.7 nM
[3]
  CC50 at 3 days: 53700 nM
other
  melting point: 179.2 °C

## CCc1cc(C(=O)N2CCCCC[C@H]2C)nc2cc(-c3ccc(N4CC[C@@](C)(C(=O)O)C4)cc3F)nn12 [Compound W50]
[1]
  EC50: 44.7 nM
[3]
  CC50 at 3 days: 74100 nM
other
  melting point: 110.2 °C

## C[C@@H]1CCCCCN1C(=O)c1cc(C2CC2)n2nc(-c3ccc(N4CC[C@H](C(=O)O)C4)cc3F)cc2n1 [Compound W51]
[1]
  EC50: 38.9 nM
[3]
  CC50 at 3 days: 69200 nM
other
  melting point: 203.3 °C
